TGI and GI50 data for 8 compounds are collected here from PubChem BioAssay (NCI).

Some test systems named below: HT29 colon; HCC-2998 colon; KM12 colon; SF-539 CNS; NCI-H23 lung; BT-549 breast; OVCAR-4 ovarian; ACHN renal; MDA-MB-435; SF-268 CNS.
Common to all, as to assay: growth of human tumour cells (NCI), 48 h

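48-hour exposure; five concentrations; linearly interpolated endpoints. GI50 marks 50% less growth. Definition used: TGI = concentration required for complete inhibition of growth.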 Some results are limits rather than exact numbers.

With `Cc1ccc2nc(N/N=C/c3cccc(C)n3)cc(C)c2c1`, the TGI with HT29 colon is 27.3 µM; in the test on HCC-2998 colon it was 27.6 µM; in the test on KM12 colon it was 27.7 µM; in the test on SF-539 CNS it was 38.3 µM; in the test with NCI-H23 lung it was 43.2 µM; in the test with BT-549 breast it was 33.3 µM. Also, the TGI in the test on OVCAR-4 ovarian is 41.5 µM; in the test on ACHN renal it was 31.4 µM; with MDA-MB-435, 32 µM; with SF-268 CNS, 38.7 µM.
As to `COc1ccc(-c2csc3c2-n2cccc2C3=O)cc1O`, the GI50 is 3.68 µM in the test with HT29 colon; 0.454 µM in the test on HCC-2998 colon; 0.0653 µM in the test with KM12 colon; 0.0226 µM in the test on SF-539 CNS; 0.056 µM in the test with NCI-H23 lung; 0.0197 µM in the test with BT-549 breast. The GI50 in the test on OVCAR-4 ovarian was 0.579 µM; in the test with ACHN renal, under 0.0489 µM; in the test on MDA-MB-435, under 0.01 µM; with SF-268 CNS, under 0.0284 µM. Also, the TGI in the test with HT29 colon is over 78.1 µM; in the test on HCC-2998 colon it was 8.71 µM; in the test on KM12 colon, over 100 µM; in the test on SF-539 CNS it was over 100 µM; in the test with NCI-H23 lung it was over 42.4 µM; with BT-549 breast, over 100 µM. Also, the TGI is over 100 µM with OVCAR-4 ovarian, over 100 µM with ACHN renal, 0.0102 µM with MDA-MB-435 and over 82.2 µM with SF-268 CNS.
In the case of `O=[N+]([O-])c1cccc(-c2cc(-c3cc(Br)ccc3O)[nH]n2)c1`, the GI50 with HT29 colon was 3.55 µM; with HCC-2998 colon, 2.96 µM; in the test with KM12 colon, 2.13 µM; with SF-539 CNS, 2.89 µM; in the test with NCI-H23 lung, 2.06 µM; with BT-549 breast, 1.26 µM. Besides, the GI50 in the test with OVCAR-4 ovarian was 3.45 µM; in the test on ACHN renal, 3.23 µM; with MDA-MB-435, 1.77 µM; in the test with SF-268 CNS it was 2.86 µM. Besides, the TGI in the test with HT29 colon was determined as 12 µM; in the test with HCC-2998 colon, 12.1 µM; in the test on KM12 colon, 6 µM; with SF-539 CNS, 11 µM; with NCI-H23 lung it was 6.11 µM; in the test on BT-549 breast, 4.61 µM. In addition, the TGI with OVCAR-4 ovarian is 17.3 µM; in the test with MDA-MB-435 it was 4.58 µM; with SF-268 CNS, 12.7 µM.
`CCC(=O)c1ccc2c(c1)N(CCCN1CCN(CCO)CC1)c1ccccc1S2`: the GI50 in the test on HT29 colon is 3.98 µM; in the test with HCC-2998 colon, 11.8 µM; in the test on KM12 colon it was 14.9 µM; in the test with SF-539 CNS, 12.2 µM; in the test with NCI-H23 lung, 15.9 µM; in the test with BT-549 breast, 14.9 µM. The GI50 was 12.9 µM in the test on OVCAR-4 ovarian, 16.2 µM in the test on ACHN renal, 3.24 µM with MDA-MB-435 and 15.4 µM with SF-268 CNS. For the same compound, the TGI in the test with HT29 colon was determined as 14.7 µM; in the test on HCC-2998 colon, 26.1 µM; in the test with KM12 colon, 28.7 µM; in the test on SF-539 CNS it was 27 µM; in the test on NCI-H23 lung, 31.4 µM; in the test with BT-549 breast, 28.9 µM. Also, the TGI in the test on OVCAR-4 ovarian came to 25.6 µM; in the test with ACHN renal, 32 µM; in the test with MDA-MB-435 it was 12.3 µM; with SF-268 CNS, 29.5 µM.
With `CCCCCCN1CCN(Cc2ccc(N(CC)CC)cc2)C(=O)C1=O`, the GI50 with HT29 colon was 3.34 µM; with HCC-2998 colon, 6.45 µM; in the test on KM12 colon it was 2.47 µM; in the test with SF-539 CNS it was 2.57 µM; in the test on NCI-H23 lung, 4.05 µM; in the test with BT-549 breast, 10.2 µM. Moreover, the GI50 with OVCAR-4 ovarian was 6.73 µM; with ACHN renal it was 6.45 µM; in the test with MDA-MB-435, 0.448 µM; in the test on SF-268 CNS, 6.21 µM. In addition, the TGI with HT29 colon is over 100 µM; with HCC-2998 colon, 28.2 µM; in the test with KM12 colon it was 82.4 µM; in the test with SF-539 CNS, 8.23 µM; in the test on NCI-H23 lung, 62.5 µM; in the test on BT-549 breast it was 95.6 µM. Further, the TGI in the test with OVCAR-4 ovarian was 79.6 µM; in the test with ACHN renal, over 100 µM; in the test on MDA-MB-435, 2.38 µM; with SF-268 CNS, over 100 µM.
On to `CC1(C)N[P+]2(Nc3ccccc3O2)OC1=O` (centres undefined), for which the TGI in the test with HT29 colon, in the test on HCC-2998 colon, in the test with KM12 colon, in the test with SF-539 CNS, in the test with NCI-H23 lung and in the test on BT-549 breast was over 100 µM each time. The TGI in the test on OVCAR-4 ovarian was over 100 µM; in the test with ACHN renal, over 100 µM; in the test on MDA-MB-435, 33.2 µM; in the test with SF-268 CNS it was over 100 µM.
On to `O=[N+]([O-])/C=C/c1ccc([N+](=O)[O-])cc1`, for which the GI50 with HT29 colon was 2.07 µM; with HCC-2998 colon it was 1.75 µM; with KM12 colon, 2.25 µM; with SF-539 CNS, 2.46 µM; in the test with NCI-H23 lung it was 2.07 µM; in the test with BT-549 breast, 2.1 µM. Also, the GI50 is 3.65 µM in the test on OVCAR-4 ovarian, 2.08 µM in the test with ACHN renal, 1.74 µM in the test on MDA-MB-435 and 3.65 µM with SF-268 CNS. In addition, the TGI with HT29 colon turned out to be 5 µM; with HCC-2998 colon, 3.23 µM; in the test on KM12 colon, 4.71 µM; in the test on SF-539 CNS, 4.89 µM; in the test on NCI-H23 lung, 5.2 µM; in the test with BT-549 breast, 4.02 µM. Moreover, the TGI with OVCAR-4 ovarian came out at 22.3 µM; with ACHN renal, 4.16 µM; with MDA-MB-435, 3.99 µM; with SF-268 CNS, 12.9 µM.
As to `C=C(C)[C@@H]1CC[C@]2(C(=O)NCCNCCNCCN)CC[C@]3(C)[C@H](CC[C@@H]4[C@@]5(C)CCC(=O)C(C)(C)[C@@H]5CC[C@]43C)[C@@H]12`, the GI50 in the test on HT29 colon was 7.17 µM; in the test with HCC-2998 colon, 7.16 µM; in the test with KM12 colon it was 8.47 µM; in the test with SF-539 CNS it was 7.53 µM; with NCI-H23 lung, 9.14 µM; with BT-549 breast, 8.91 µM. Moreover, the GI50 in the test with OVCAR-4 ovarian was 7.39 µM; in the test with ACHN renal, 13.8 µM; in the test with MDA-MB-435 it was 8.7 µM; in the test with SF-268 CNS, 7.53 µM. Moreover, the TGI with HT29 colon turned out to be 14.6 µM; in the test with HCC-2998 colon it was 14.8 µM; in the test on KM12 colon, 16.6 µM; in the test with SF-539 CNS, 14.6 µM; in the test with NCI-H23 lung, 17.4 µM; with BT-549 breast, 22.2 µM. For the same compound, the TGI in the test with OVCAR-4 ovarian is 15.3 µM; with ACHN renal it was over 50 µM; in the test with MDA-MB-435, 17.5 µM; in the test on SF-268 CNS, 15.9 µM.
